Assay results from ChEMBL document CHEMBL6083236, “Identification of novel diarylpyrimidine derivatives as potent HIV-1 non-nucleoside reverse transcriptase inhibitors against wild-type and K103N mutant viruses” (Eur J Med Chem, 2024).

Key:
[1] = tested on: MT4; assay: Cytotoxicity against human MT4 cells assessed as reduction in cell viability incubated for 5 days by Spectrophotometric based MTT assay; assay type: functional; details: MT4, 120 h, time 5 day
[2] = Selectivity index, ratio of CC50 for cytotoxicity against human MT4 cells to EC50 for antiviral activity against wild type HIV1 IIIB infected in human MT4 cells
[3] = tested on: Human immunodeficiency virus 1; assay: Antiviral activity against HIV1 harboring Y188L mutant infected in human MT4 cells assessed as reduction in virus induced cytopathic effect incubated for 5 days by Spectrophotometric based MTT assay; assay type: functional, organism-based; details: Human immunodeficiency virus 1, MT4, 120 h
[4] = tested on: Human immunodeficiency virus 1; assay: Antiviral activity against HIV1 harboring E138K mutant infected in human MT4 cells assessed as reduction in virus induced cytopathic effect incubated for 5 days by Spectrophotometric based MTT assay; assay type: functional, organism-based; details: Human immunodeficiency virus 1, MT4, 120 h
[5] = tested on: Human immunodeficiency virus 1; assay: Antiviral activity against HIV1 harboring K103 N mutant infected in human MT4 cells assessed as reduction in virus induced cytopathic effect incubated for 5 days by Spectrophotometric based MTT assay; assay type: functional, organism-based; details: Human immunodeficiency virus 1, MT4, 120 h
[6] = tested on: Human immunodeficiency virus 1; assay: Antiviral activity against wild type HIV1 IIIB infected in human MT4 cells assessed as reduction in virus induced cytopathic effect incubated for 5 days by Spectrophotometric based MTT assay; assay type: functional, organism-based; details: Human immunodeficiency virus 1, IIIB, MT4, 120 h
[7] = tested on: Human immunodeficiency virus 1; assay: Antiviral activity against HIV1 harboring L100I mutant infected in human MT4 cells assessed as reduction in virus induced cytopathic effect incubated for 5 days by Spectrophotometric based MTT assay; assay type: functional, organism-based; details: Human immunodeficiency virus 1, MT4, 120 h
[8] = tested on: Human immunodeficiency virus 1; assay: Antiviral activity against HIV1 harboring RES056 mutant infected in human MT4 cells assessed as reduction in virus induced cytopathic effect incubated for 5 days by Spectrophotometric based MTT assay; assay type: functional, organism-based; details: Human immunodeficiency virus 1, RES056, MT4, 120 h
[9] = tested on: Human immunodeficiency virus 1; assay: Antiviral activity against HIV1 harboring Y181C mutant infected in human MT4 cells assessed as reduction in virus induced cytopathic effect incubated for 5 days by Spectrophotometric based MTT assay; assay type: functional, organism-based; details: Human immunodeficiency virus 1, MT4, 120 h
[10] = tested on: Human immunodeficiency virus 1; assay: Antiviral activity against HIV1 harboring F227L/V106A mutant infected in human MT4 cells assessed as reduction in virus induced cytopathic effect incubated for 5 days by Spectrophotometric based MTT assay; assay type: functional, organism-based; details: Human immunodeficiency virus 1, MT4, 120 h
[11] = Selectivity index, ratio of CC50 for cytotoxicity against human MT4 cells to EC50 for antiviral activity against HIV1 RES056 mutant infected in human MT4 cells
[12] = target: Human immunodeficiency virus type 1 reverse transcriptase (Human immunodeficiency virus 1, UniProt Q72547); assay: Inhibition of wild type HIV1 reverse transcriptase assessed as inhibition of biotin deoxyuridine triphosphate incorporation into cDNA using DIG-labelled dNTP preincubated with compound for 1 hr followed by substrate addition in presence of biotin-labeled dNTPs by ELISA analysis

SMILES	CC50 [1]	selectivity ratio ([2]; MT4 cells)	EC50 [3]	EC50 [4]	EC50 [5]	EC50 [6]	EC50 [7]	EC50 [8]	EC50 [9]	EC50 [10]	selectivity ratio ([11]; MT4 cells)	selectivity ratio ([2]; mt4)	selectivity ratio ([11]; mt4)	IC50 [12]
Cc1cc(/C=C/C#N)cc(C)c1Oc1ccnc(Nc2ccc(N3CCOCC3=O)c(C#N)c2)n1	26600 nM	9540	2600 nM	15 nM	4 nM	3 nM	13 nM	140 nM	23 nM	330 nM	191	–	–	–
Cc1cc(/C=C/C#N)cc(C)c1Oc1ccnc(Nc2ccc(N3CC[S+]([O-])CC3=O)c(C#N)c2)n1 (stereo unspecified)	26400 nM	1780	–	–	–	15 nM	–	2810 nM	–	–	9	–	–	–
Cc1cc(/C=C/C#N)cc(C)c1Oc1ccnc(Nc2ccc(N3CC(C#N)C3)c(C#N)c2)n1	> 44700 nM	> 3480	–	–	–	13 nM	–	> 44700 nM	–	–	–	–	–	–
CC(=O)N1CCN(c2ccc(Nc3nccc(Oc4c(C)cc(/C=C/C#N)cc4C)n3)cc2C#N)CC1	6640 nM	1280	> 6640 nM	30 nM	3 nM	5 nM	62 nM	550 nM	65 nM	44 nM	12	–	–	–
Cc1cc(/C=C/C#N)cc(C)c1Oc1ccnc(Nc2ccc(N3CCN(S(C)(=O)=O)CC3=O)c(C#N)c2)n1	25600 nM	5910	> 25600 nM	94 nM	5 nM	4 nM	100 nM	1520 nM	310 nM	280 nM	17	–	–	–
CSC1CN(c2ccc(Nc3nccc(Oc4c(C)cc(/C=C/C#N)cc4C)n3)cc2C#N)C1	> 267000 nM	> 45200	> 267000 nM	39 nM	6 nM	6 nM	18 nM	2710 nM	53 nM	150 nM	> 99	–	–	–
Cc1cc(/C=C/C#N)cc(C)c1Oc1ccnc(Nc2ccc(N3CCN(C=O)CC3)c(C#N)c2)n1	15900 nM	4350	2980 nM	48 nM	20 nM	4 nM	16 nM	930 nM	53 nM	98 nM	17	–	–	–
Cc1cc(/C=C/C#N)cc(C)c1Oc1ccnc(Nc2ccc(N3CCN(C)CC3)c(C#N)c2)n1	3940 nM	195	–	–	–	20 nM	–	> 3940 nM	–	–	–	–	–	–
Cc1cc(/C=C/C#N)cc(C)c1Oc1ccnc(Nc2ccc(N3CCSCC3)c(C#N)c2)n1	> 267000 nM	> 30300	3000 nM	49 nM	6 nM	9 nM	21 nM	450 nM	40 nM	66 nM	> 596	–	–	–
Cc1cc(/C=C/C#N)cc(C)c1Oc1ccnc(Nc2ccc(N3CCC(C(F)(F)F)CC3)c(C#N)c2)n1	> 241000 nM	> 6100	–	–	–	40 nM	–	17600 nM	–	–	> 14	–	–	–
COP(=O)(OC)N1CCN(c2ccc(Nc3nccc(Oc4c(C)cc(/C=C/C#N)cc4C)n3)cc2C#N)C(=O)C1	23200 nM	94	–	–	–	250 nM	–	> 23200 nM	–	–	–	–	–	–
O=C1Nc2ccc(Cl)cc2[C@@](C#CC2CC2)(C(F)(F)F)O1 [EFAVIRENZ]	> 6340 nM	–	–	–	100 nM	–	35 nM	450 nM	6 nM	290 nM	–	–	–	–
COC1CN(c2ccc(Nc3nccc(Oc4c(C)cc(/C=C/C#N)cc4C)n3)cc2C#N)C1	> 44200 nM	> 2050	–	–	–	22 nM	–	> 44200 nM	–	–	–	–	–	–
Cc1cc(/C=C/C#N)cc(C)c1Oc1ccnc(Nc2ccc(N3CCS(=O)(=O)CC3=O)c(C#N)c2)n1	34000 nM	8130	18400 nM	130 nM	3 nM	4 nM	83 nM	910 nM	140 nM	250 nM	37	–	–	–
Cc1cc(/C=C/C#N)cc(C)c1Oc1ccnc(Nc2ccc(N3CC(F)C3)c(C#N)c2)n1	170000 nM	20000	> 170000 nM	63 nM	10 nM	9 nM	48 nM	520 nM	49 nM	330 nM	328	–	–	–
Cc1cc(/C=C/C#N)cc(C)c1Oc1ccnc(Nc2ccc(N3CCSCC3=O)c(C#N)c2)n1	45300 nM	3410	–	–	–	13 nM	–	920 nM	–	–	49	–	–	–
COC1CCN(c2ccc(Nc3nccc(Oc4c(C)cc(/C=C/C#N)cc4C)n3)cc2C#N)CC1	6890 nM	1080	4860 nM	190 nM	13 nM	6 nM	130 nM	> 6890 nM	160 nM	150 nM	–	–	–	–
Cc1cc(/C=C/C#N)cc(C)c1Oc1ccnc(Nc2ccc(N3CCC(F)(F)CC3)c(C#N)c2)n1	> 257000 nM	> 8290	–	–	–	31 nM	–	1270 nM	–	–	–	–	–	–
Cc1cc(C#N)cc(C)c1Oc1nc(Nc2ccc(C#N)cc2)nc(N)c1Br [ETRAVIRINE]	> 4590 nM	–	35 nM	25 nM	5 nM	–	–	81 nM	–	28 nM	–	–	–	–
Cc1cc(/C=C/C#N)cc(C)c1Oc1ccnc(Nc2ccc(N3CCCC3)c(C#N)c2)n1	270000 nM	5010	–	–	–	54 nM	–	5320 nM	–	–	51	–	–	–
Cc1cc(/C=C/C#N)cc(C)c1Oc1ccnc(Nc2ccc(N3CC[S+]([O-])CC3)c(C#N)c2)n1	97800 nM	19300	> 97800 nM	26 nM	4 nM	5 nM	22 nM	2190 nM	46 nM	190 nM	45	–	–	–
Cc1cc(/C=C/C#N)cc(C)c1Oc1ccnc(Nc2ccc(N3CCC(S(C)(=O)=O)CC3)c(C#N)c2)n1	6440 nM	725	2830 nM	42 nM	18 nM	9 nM	35 nM	820 nM	40 nM	65 nM	8	–	–	–
Cc1cc(/C=C/C#N)cc(C)c1Oc1ccnc(Nc2ccc(N3CCCCC3)c(C#N)c2)n1	> 277000 nM	> 6380	–	–	–	43 nM	–	4480 nM	–	–	> 62	–	–	–
Cc1cn([C@H]2C[C@H](N=[N+]=[N-])[C@@H](CO)O2)c(=O)[nH]c1=O [ZIDOVUDINE]	> 7480 nM	–	–	–	–	35 nM	–	35 nM	–	–	–	> 212	> 214	–
Cc1cc(/C=C/C#N)cc(C)c1Oc1ccnc(Nc2ccc(N3CCC(C#N)CC3)c(C#N)c2)n1	> 42100 nM	> 4560	> 42100 nM	110 nM	13 nM	9 nM	230 nM	1390 nM	130 nM	290 nM	> 30	–	–	–
Cc1cc(/C=C/C#N)cc(C)c1Oc1ccnc(Nc2ccc(N3CCC(F)CC3)c(C#N)c2)n1	> 267000 nM	> 18800	–	–	–	14 nM	–	1480 nM	–	–	> 181	–	–	–
Cc1ccnc2c1NC(=O)c1cccnc1N2C1CC1 [NEVIRAPINE]	> 15000 nM	–	> 15000 nM	–	9010 nM	–	3450 nM	> 15000 nM	4880 nM	> 15000 nM	–	–	–	–
CC(=O)C1CCN(c2ccc(Nc3nccc(Oc4c(C)cc(/C=C/C#N)cc4C)n3)cc2C#N)CC1	5120 nM	1070	> 5120 nM	110 nM	12 nM	5 nM	65 nM	1490 nM	150 nM	75 nM	3	–	–	–
Cc1cc(/C=C/C#N)cc(C)c1Oc1ccnc(Nc2ccc(N3CCS(=O)(=O)CC3)c(C#N)c2)n1	58200 nM	–	> 58300 nM	9 nM	2 nM	2 nM	4 nM	260 nM	12 nM	58 nM	–	–	–	160 nM
